Patent publication US10131652B2, “Pyrimidinyloxy benzene derivatives as herbicides” (E. I. DU PONT DE NEMOURS AND COMPANY, priority 2014, dated 2018)

Columns and labels:
Assay type in all cases: in vivo
[1] = system: barnyardgrass (Echinochloa crus-galli); experiment: Test B pre-/postemergence plant response
Outline: (§1)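 Visual injury scores on a 0–100 scale (100 = complete control) relative to untreated plants, taken about 10 days post-treatment in greenhouse. Treatments were a directed preemergence soil spray and a postemergence spray at one- to two-leaf stage, using surfactant-containing solvent formulation.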

corn (Zea mays) = experiment: Test B pre-/postemergence plant response
Outline: as §1

[2] = system: giant foxtail (Setaria faberii); experiment: Test B pre-/postemergence plant response
Outline: as §1

[3] = system: large (Lg) crabgrass (Digitaria sanguinalis); experiment: Test B pre-/postemergence plant response
Outline: as §1

[4] = system: morningglory (Ipomoea spp.); experiment: Test B pre-/postemergence plant response
Outline: as §1

[5] = system: pigweed (Amaranthus retroflexus); experiment: Test B pre-/postemergence plant response
Outline: as §1

[6] = system: velvetleaf (Abutilon theophrasti); experiment: Test B pre-/postemergence plant response
Outline: as §1

[7] = system: wheat (Triticum aestivum); experiment: Test B pre-/postemergence plant response
Outline: as §1

[8] = system: barnyardgrass (Echinochloa crus-galli); experiment: Test C flooded paddy test plant response; details: Flood, 250 g ai/ha; scale of 0 to 100 where 0 is no effect and 100 is complete control; 13 to 15 days
Outline: (§2)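 Greenhouse paddy assay, 13–15 days. Treatment into 3 cm floodwater over 2-leaf plants; visual 0–100 rating against controls.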

[9] = system: ducksalad (Heteranthera limosa); experiment: Test C flooded paddy test plant response; details: Flood, 250 g ai/ha; scale of 0 to 100 where 0 is no effect and 100 is complete control; 13 to 15 days
Outline: as §2

rice (Oryza sativa) = experiment: Test C flooded paddy test plant response; details: Flood, 250 g ai/ha; scale of 0 to 100 where 0 is no effect and 100 is complete control; 13 to 15 days
Outline: as §2

[10] = system: small-flower umbrella sedge (Cyperus difformis); experiment: Test C flooded paddy test plant response; details: Flood, 250 g ai/ha; scale of 0 to 100 where 0 is no effect and 100 is complete control; 13 to 15 days
Outline: as §2

[11] = 125 g ai/ha, postemergence, 0 to 100 scale, 0 no effect, 100 complete control
[12] = Postemergence, 500 g ai/ha, 0 to 100 scale (0 no effect, 100 complete control)
[13] = Preemergence, 125 g ai/ha, 0 to 100 scale where 0 is no effect and 100 is complete control
[14] = Preemergence, 500 g ai/ha, 0 to 100 scale where 0 is no effect and 100 is complete control
[15] = Preemergence, 125 g ai/ha, 0 to 100 scale (0 no effect, 100 complete control)
[16] = Preemergence, 500 g ai/ha, 0 to 100 scale (0 no effect, 100 complete control)

## FC(F)(F)c1ccc(-c2ccccc2Oc2ncc(Br)cn2)nc1 [Compound 28]
[1]; [11]
  Plant response rating, Barnyardgrass: 0
[1]; [12]
  Plant response rating, Barnyardgrass: 50
[1]; [13]
  Plant response rating, Barnyardgrass: 0
[1]; [14]
  Plant response rating, Barnyardgrass: 60
Corn (Zea mays); [11]
  Plant response rating, Corn: 0
Corn (Zea mays); [12]
  Plant response rating, Corn: 20
Corn (Zea mays); [13]
  Plant response rating, Corn: 0
Corn (Zea mays); [14]
  Plant response rating, Corn: 0
[2]; [11]
  Plant response rating, Foxtail, Giant: 20
[2]; [12]
  Plant response rating, Foxtail, Giant: 40
[2]; [13]
  Plant response rating, Foxtail, Giant: 30
[2]; [14]
  Plant response rating, Foxtail, Giant: 90
[3]; [11]
  Plant response rating, Crabgrass, Large: 20
[3]; [12]
  Plant response rating, Crabgrass, Large: 40
[3]; [13]
  Plant response rating, Crabgrass, Large: 40
[3]; [14]
  Plant response rating, Crabgrass, Large: 100
[4]; [11]
  Plant response rating, Morningglory: 0
[4]; [12]
  Plant response rating, Morningglory: 30
[4]; [13]
  Plant response rating, Morningglory: 0
[4]; [14]
  Plant response rating, Morningglory: 0
[5]; [11]
  Plant response rating, Pigweed: 30
[5]; [12]
  Plant response rating, Pigweed: 100
[5]; [13]
  Plant response rating, Pigweed: 40
[5]; [14]
  Plant response rating, Pigweed: 80
[6]; [11]
  Plant response rating, Velvetleaf: 40
[6]; [12]
  Plant response rating, Velvetleaf: 100
[6]; [13]
  Plant response rating, Velvetleaf: 0
[6]; [14]
  Plant response rating, Velvetleaf: 60
[7]; [11]
  Plant response rating, Wheat: 0
[7]; [12]
  Plant response rating, Wheat: 0
[7]; [13]
  Plant response rating, Wheat: 0
[7]; [14]
  Plant response rating, Wheat: 0
[8]
  Barnyardgrass plant response rating: 0
[9]
  Ducksalad plant response rating: 0
Rice (Oryza sativa)
  Rice plant response rating: 0
[10]
  Sedge, Umbrella plant response rating: 0

## Clc1ccc(-c2c(Br)cccc2Oc2ncc(Cl)cn2)nc1 [Compound 135]
[1]; [11]
  Plant response rating, Barnyardgrass: 10
[1]; [12]
  Plant response rating, Barnyardgrass: 40
[1]; [15]
  Barnyardgrass plant response rating: 10
[1]; [14]
  Plant response rating, Barnyardgrass: 60
Corn (Zea mays); [11]
  Plant response rating, Corn: 10
Corn (Zea mays); [12]
  Plant response rating, Corn: 30
Corn (Zea mays); [15]
  Corn plant response rating: 0
Corn (Zea mays); [14]
  Plant response rating, Corn: 0
[2]; [11]
  Plant response rating, Foxtail, Giant: 10
[2]; [12]
  Plant response rating, Foxtail, Giant: 60
[2]; [15]
  Foxtail, Giant plant response rating: 60
[2]; [14]
  Plant response rating, Foxtail, Giant: 100
[3]; [11]
  Plant response rating, Crabgrass, Large: 10
[3]; [12]
  Plant response rating, Crabgrass, Large: 50
[3]; [15]
  Crabgrass, Large plant response rating: 80
[3]; [14]
  Plant response rating, Crabgrass, Large: 100
[4]; [11]
  Plant response rating, Morningglory: 20
[4]; [12]
  Plant response rating, Morningglory: 50
[4]; [15]
  Morningglory plant response rating: 0
[4]; [14]
  Plant response rating, Morningglory: 10
[5]; [11]
  Plant response rating, Pigweed: 100
[5]; [12]
  Plant response rating, Pigweed: 100
[5]; [15]
  Pigweed plant response rating: 90
[5]; [14]
  Plant response rating, Pigweed: 100
[6]; [11]
  Plant response rating, Velvetleaf: 40
[6]; [12]
  Plant response rating, Velvetleaf: 80
[6]; [15]
  Velvetleaf plant response rating: 20
[6]; [14]
  Plant response rating, Velvetleaf: 60
[7]; [11]
  Plant response rating, Wheat: 0
[7]; [12]
  Plant response rating, Wheat: 10
[7]; [15]
  Wheat plant response rating: 0
[7]; [14]
  Plant response rating, Wheat: 0
[8]
  Barnyardgrass plant response rating: 0
[9]
  Ducksalad plant response rating: 0
Rice (Oryza sativa)
  Rice plant response rating: 0
[10]
  Sedge, Umbrella plant response rating: 0

## Clc1cnc(Oc2ccccc2-c2nccc(Cl)n2)nc1 [Compound 18]
[1]; [11]
  Plant response rating, Barnyardgrass: 0
[1]; [12]
  Plant response rating, Barnyardgrass: 0
[1]; [13]
  Plant response rating, Barnyardgrass: 0
[1]; [16]
  Plant response rating, Barnyardgrass: 0
Corn (Zea mays); [11]
  Plant response rating, Corn: 0
Corn (Zea mays); [12]
  Plant response rating, Corn: 0
Corn (Zea mays); [13]
  Plant response rating, Corn: 0
Corn (Zea mays); [16]
  Plant response rating, Corn: 0
[2]; [11]
  Plant response rating, Foxtail, Giant: 0
[2]; [12]
  Plant response rating, Foxtail, Giant: 0
[2]; [13]
  Plant response rating, Foxtail, Giant: 0
[2]; [16]
  Plant response rating, Foxtail, Giant: 10
[3]; [11]
  Plant response rating, Crabgrass, Large: 0
[3]; [12]
  Plant response rating, Crabgrass, Large: 0
[3]; [13]
  Plant response rating, Crabgrass, Large: 0
[3]; [16]
  Plant response rating, Crabgrass, Large: 20
[4]; [11]
  Plant response rating, Morningglory: 0
[4]; [12]
  Plant response rating, Morningglory: 0
[4]; [13]
  Plant response rating, Morningglory: 0
[4]; [16]
  Plant response rating, Morningglory: 0
[5]; [11]
  Plant response rating, Pigweed: 0
[5]; [12]
  Plant response rating, Pigweed: 0
[5]; [13]
  Plant response rating, Pigweed: 0
[5]; [16]
  Plant response rating, Pigweed: 30
[6]; [11]
  Plant response rating, Velvetleaf: 0
[6]; [12]
  Plant response rating, Velvetleaf: 0
[6]; [13]
  Plant response rating, Velvetleaf: 0
[6]; [16]
  Plant response rating, Velvetleaf: 0
[7]; [11]
  Plant response rating, Wheat: 0
[7]; [12]
  Plant response rating, Wheat: 0
[7]; [13]
  Plant response rating, Wheat: 0
[7]; [16]
  Plant response rating, Wheat: 0
[8]
  Barnyardgrass plant response rating: 0
[9]
  Ducksalad plant response rating: 0
Rice (Oryza sativa)
  Rice plant response rating: 0
[10]
  Sedge, Umbrella plant response rating: 0

## Cn1cc(-c2ccccc2Oc2ncc(Cl)cn2)cn1 [Compound 11]
[1]; [11]
  Plant response rating, Barnyardgrass: 0
[1]; [12]
  Plant response rating, Barnyardgrass: 10
[1]; [13]
  Plant response rating, Barnyardgrass: 0
[1]; [16]
  Plant response rating, Barnyardgrass: 0
Corn (Zea mays); [11]
  Plant response rating, Corn: 0
Corn (Zea mays); [12]
  Plant response rating, Corn: 0
Corn (Zea mays); [13]
  Plant response rating, Corn: 0
Corn (Zea mays); [16]
  Plant response rating, Corn: 0
[2]; [11]
  Plant response rating, Foxtail, Giant: 0
[2]; [12]
  Plant response rating, Foxtail, Giant: 0
[2]; [13]
  Plant response rating, Foxtail, Giant: 0
[2]; [16]
  Plant response rating, Foxtail, Giant: 0
[3]; [11]
  Plant response rating, Crabgrass, Large: 10
[3]; [12]
  Plant response rating, Crabgrass, Large: 10
[3]; [13]
  Plant response rating, Crabgrass, Large: 0
[3]; [16]
  Plant response rating, Crabgrass, Large: 0
[4]; [11]
  Plant response rating, Morningglory: 10
[4]; [12]
  Plant response rating, Morningglory: 20
[4]; [13]
  Plant response rating, Morningglory: 0
[5]; [11]
  Plant response rating, Pigweed: 10
[5]; [12]
  Plant response rating, Pigweed: 20
[5]; [13]
  Plant response rating, Pigweed: 0
[5]; [16]
  Plant response rating, Pigweed: 30
[6]; [11]
  Plant response rating, Velvetleaf: 10
[6]; [12]
  Plant response rating, Velvetleaf: 20
[6]; [13]
  Plant response rating, Velvetleaf: 10
[6]; [16]
  Plant response rating, Velvetleaf: 10
[7]; [11]
  Plant response rating, Wheat: 0
[7]; [12]
  Plant response rating, Wheat: 0
[7]; [13]
  Plant response rating, Wheat: 0
[7]; [16]
  Plant response rating, Wheat: 0
[8]
  Barnyardgrass plant response rating: 0
[9]
  Ducksalad plant response rating: 0
Rice (Oryza sativa)
  Rice plant response rating: 0
[10]
  Sedge, Umbrella plant response rating: 0
